Assay [1] deals with T1, human soluble epoxide hydrolase (sEH) C-terminal domain (Homo sapiens, UniProt P34913, C522S).
T1 construct: gene EPHX2; CTD, amino acids 230–555
T1 sequence (P34913 230-555 C522S): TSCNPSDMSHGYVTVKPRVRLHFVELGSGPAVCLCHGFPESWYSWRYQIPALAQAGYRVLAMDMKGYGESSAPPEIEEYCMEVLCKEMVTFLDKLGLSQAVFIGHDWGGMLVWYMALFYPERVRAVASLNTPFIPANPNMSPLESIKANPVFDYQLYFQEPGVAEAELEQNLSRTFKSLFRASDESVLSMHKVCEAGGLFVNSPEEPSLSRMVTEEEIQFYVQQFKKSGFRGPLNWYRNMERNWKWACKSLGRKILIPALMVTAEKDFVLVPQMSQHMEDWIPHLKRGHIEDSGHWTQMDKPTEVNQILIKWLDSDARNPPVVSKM
Put plainly: single injection method kinetic ITC (KM). It counts as biochemical.

Assay [2] addresses T2, human soluble epoxide hydrolase (sEH) C-terminal domain (Homo sapiens, UniProt P34913, C423S).
T2 construct: gene EPHX2; CTD, amino acids 230–555
T2 sequence (P34913 230-555 C423S): T1 sequence (P34913 230-555 C522S) with C194S, S293C
Put plainly: single injection method kinetic ITC (KM). It counts as biochemical.

The target of assay [3] is T3, human soluble epoxide hydrolase (sEH) C-terminal domain (Homo sapiens, UniProt P34913).
T3 construct: gene EPHX2; CTD, amino acids 230–555
T3 sequence (P34913 230-555): T1 sequence (P34913 230-555 C522S) with S293C
The assay is described as follows: single injection method kinetic ITC (KM). It counts as biochemical.

The target of assay [4] is T3, human soluble epoxide hydrolase (sEH) C-terminal domain. Put plainly: spectrofluorometric hydrolysis assay with purified sEH CTD. It counts as biochemical.
Assay [5] deals with T4, human soluble epoxide hydrolase (sEH) C-terminal domain, M3 mutant (Homo sapiens, UniProt P34913, R410A/C423S/S439A/R440A/K495A).
T4 construct: gene EPHX2; CTD, amino acids 230–555
T4 sequence (P34913 230-555 R410A/C423S/S439A/R440A/K495A): T1 sequence (P34913 230-555 C522S) with R181A, C194S, S210A, R211A, K266A, S293C
The assay is described as follows: UV spectra of washed covalent adduct of purified protein; fluorometric PHOME specific activity assay. It counts as binding.

The structures appear in SMILES notation. Where a chain is given by its changes, count along the chain named.

With `CCCCCC1OC1C/C=C\C/C=C\C/C=C\CCCC(=O)O` (centres unmarked) [14(15)-EET], the Km – broadly, the substrate concentration at which the rate is half of its maximum – in assay [1] was 24 ± 2.58 µM; in assay [2] it was 14.6 ± 0.52 µM; in assay [3] it was 11.2 ± 0.46 µM.

As for `COc1ccc2cc(C(C#N)OC(=O)CC3OC3c3ccccc3)ccc2c1` (centres unmarked) [PHOME, 3-phenyl-cyano(6-methoxy-2-naphthalenyl)methylester-2-oxiraneacetic acid], the “spectrofluorometric hydrolysis assay with purified sEH CTD” value in assay [4] was “(PHOME), which upon sEH enzymatic hydrolysis releases the fluorescent product 6-methoxy-2-naphtaldeyde (6M2N)”.

As for `CCCCC/C=C/C=C1/C(=O)C=C[C@@H]1C/C=C\CCCC(=O)O` [15d-PGJ2], in assay [5], the “UV spectra of washed covalent adduct of purified protein; fluorometric PHOME spe” value is given as 8.2 fold reduction in enzymatic specific activity.

These data come from article PMC13350973, “Allosteric ensembles elucidate mechanisms of inhibition in the human soluble epoxide hydrolase” (Communications Biology, 2026).
